Measurements from paper PMC7897990, “TriTOX: A novel Trichomonas vaginalis assay platform for high-throughput screening of compound libraries” (International Journal for Parasitology: Drugs and Drug …, 2021).
Where a name gives a salt, the structure may show the parent alone. Read-outs that look alike come from different tables or passages of the source. Non-standard residues stand in square brackets, D forms with d. Residues, ends and D or L forms follow the SMILES beside them. aIle = CC[C@@H](C)[C@H](N)C(=O)O

How the values were obtained:
[1] = tested on: Trichomonas vaginalis G3 trophozoites; experiment: microbe, parasite or virus in culture; details: 48 h
[2] = tested on: nontumorigenic neonatal foreskin fibroblast (NFF) cell line
[3] = tested on: Trichomonas vaginalis G3 trophozoites
[4] = read-out: T.vaginalis_%inb_Rep1
[5] = read-out: T.vaginalis_%inb_Rep2
[6] = NFF fibroblast screen at 5 µg/mL, A = active, I = inactive
[7] = NFF fibroblasts, single concentration 5 µg/mL
[8] = HTS, parasite screen at 1 µg/mL, replicate 1, raw absorbance
[9] = HTS, parasite screen at 1 µg/mL, replicate 2, raw absorbance

| Structure (SMILES) | inhibition of growth at 1 µg/mL [1, 4] [%] | inhibition of growth at 1 µg/mL [1, 5] [%] | NFF_Activity [2, 6] | NFF_Activity [2, 7] | NFF_Activity [2] | T.vaginalis_Absorbance_Rep1 [3, 8] | T.vaginalis_Absorbance_Rep2 [3, 9] | T.vaginalis_Absorbance_Rep1 [3] | T.vaginalis_Absorbance_Rep2 [3] |
| --- | --- | --- | --- | --- | --- | --- | --- | --- | --- |
| C=C[C@]1(C)C[C@@H](OC(=O)CSCCN(CC)CC)[C@]2(C)[C@H](C)CC[C@]3(CCC(=O)[C@H]32)[C@@H](C)[C@@H]1O [Tiamulin] | 12.6 | 13.9 | I (otherwise these were reported as inactive (I)) | – | – | – | – | – | – |
| CC12C[C@@]34C=CC(=O)[C@@](C)(CCC(=O)Nc5c(O)ccc(C(=O)O)c5O)C3[C@H](CC1C4)O2 (stereo partly drawn) [Platensimycin] | 11.3 | 10 | – | I (otherwise these were reported as inactive (I)) | – | – | – | – | – |
| C[C@@H]1C[C@H]2CC[C@H](O2)[C@H](C)C(=O)O[C@@H](C)C[C@@H]2CC[C@@H](O2)[C@@H](C)C(=O)O[C@H](C)C[C@H]2CC[C@H](O2)[C@H](C)C(=O)O[C@@H](C)C[C@@H]2CC[C@@H](O2)[C@@H](C)C(=O)O1 [Nonactin] | 11.6 | 12.1 | – | – | I (key: active (A) compounds having >25% inhibitory activity; otherwise these were reported as inactive (I)) | – | – | – | – |
| CN[C@H](CC(C)C)C(=O)N[C@H]1C(=O)N[C@@H](CC(N)=O)C(=O)N[C@H]2C(=O)N[C@H]3C(=O)N[C@H](C(=O)N[C@H](C(=O)O)c4cc(O)cc(O)c4-c4cc3ccc4O)[C@H](O)c3ccc(c(Cl)c3)Oc3cc2cc(c3O[C@@H]2O[C@H](CO)[C@@H](O)[C@H](O)[C@H]2O[C@H]2C[C@](C)(N)[C@H](O)[C@H](C)O2)Oc2ccc(cc2Cl)[C@H]1O [Vancomycin hydrochloride] | 1.36 | 5.42 | – | – | I (key: active (A) compounds having >25% inhibitory activity; otherwise these were reported as inactive (I)) | – | – | – | – |
| C=C1C[C@@]23C=CC(=O)[C@@](C)(CCC(=O)Nc4c(O)ccc(C(=O)O)c4O)[C@@H]2C[C@@H]1CC3 [Platencin] | 11.3 | 10.7 | – | I (otherwise these were reported as inactive (I)) | – | – | – | – | – |
| C/C=C(\C)[C@H](O)[C@H](C)/C=C(C)/C=C/C/C(C)=C/Cc1nc(OC)c(OC)c(O)c1C [Piericidin A] | 11.3 | 4.17 | – | I (otherwise these were reported as inactive (I)) | – | – | – | – | – |
| C[C@H]1c2cccc(O)c2C(=O)C2=C(O)[C@]3(O)C(=O)C(C(N)=O)=C(O)[C@@H](N(C)C)[C@@H]3[C@@H](O)[C@@H]21 [Doxycycline] | 9.15 | 1.95 | – | – | – | 0.879 | 0.647 | – | – |
| CN(C)c1ncnc2c1ncn2[C@@H]1O[C@H](CO)[C@@H](N)[C@H]1O [Puromycin aminonucleoside] | 15.7 | 13 | – | I (otherwise these were reported as inactive (I)) | – | – | – | – | – |
| COC1=CC(=O)C[C@@H](C)[C@]12Oc1c(Cl)c(OC)cc(OC)c1C2=O [Griseofulvin] | 12.4 | 12.1 | – | – | – | 0.947 | 0.823 | – | – |
| CC(=O)O[C@H]1CC[C@@]2(C)[C@@H](CC[C@@H]3[C@@H]2CC(=O)[C@]2(C)[C@@H]4[C@H](C[C@@H]32)O[C@]2(CC[C@@H](C)CO2)[C@H]4C)C1 [Hecogenin acetate] | 10.4 | 14.1 | – | – | – | 0.908 | 0.854 | – | – |
| Cc1cc(O)c(C=O)c2c1C(=O)Oc1c(C)c(O)c3c(c1O2)C(O)OC3=O (stereo not drawn) [Norstictic acid] | 13.7 | 12.1 | – | I (otherwise these were reported as inactive (I)) | – | – | – | – | – |
| C=C1CC[C@H]2C(C)(C)CCC[C@]2(C)[C@H]1C[C@@]12C[C@H]3C(=O)N4CCC[C@H]4C(=O)N3[C@@H]1Nc1ccccc12 [Drimentine C] | 10.4 | 13.8 | – | – | – | 0.907 | 0.85 | – | – |
| CC1(C)C=Cc2cc3ccc(=O)oc3cc2O1 [Xanthyletin] | 12 | 15.5 | I (otherwise these were reported as inactive (I)) | – | – | – | – | – | – |
| COc1cccc2c1C(=O)c1c(O)c3c(c(O)c1C2=O)C[C@@](O)(C(=O)CO)C[C@@H]3O[C@H]1C[C@H](N)[C@H](O)[C@H](C)O1 [Doxorubicin] | 13.5 | 3.11 | – | – | – | 0.959 | 0.663 | – | – |
| CC1(C)CCC[C@]2(C)[C@@H](C=O)C(C=O)=CC[C@@H]12 [Polygodial] | 13.1 | 13.9 | – | A (active (A) compounds having >25% inhibitory activity) | – | – | – | – | – |
| CCCCCC1=C/C(=C/c2[nH]c(-c3ccc[nH]3)cc2OC)N=C1C [Prodigiosin] | 9.63 | 1.73 | – | I (otherwise these were reported as inactive (I)) | – | – | – | – | – |
| O=C1Cc2ccccc2N1 [Oxindole] | 12.2 | 14.4 | – | I (otherwise these were reported as inactive (I)) | – | – | – | – | – |

| Structure (SMILES) | inhibition of growth at 1 µg/mL [1, 4] [%] | inhibition of growth at 1 µg/mL [1, 5] [%] | NFF_Activity [2, 6] | NFF_Activity [2, 7] | NFF_Activity [2] | T.vaginalis_Absorbance_Rep1 [3, 8] | T.vaginalis_Absorbance_Rep2 [3, 9] | T.vaginalis_Absorbance_Rep1 [3] | T.vaginalis_Absorbance_Rep2 [3] |
| --- | --- | --- | --- | --- | --- | --- | --- | --- | --- |
| O=c1[nH]c2ccccc2c(-c2ccccc2)c1O [Viridicatin] | 10.7 | 15.1 | I (otherwise these were reported as inactive (I)) | – | – | – | – | – | – |
| C=C(C)[C@@H]1NC(=O)[C@@H](NC)[C@@H](O)c2cc(Cl)c(O)c(c2)O[C@](C)(CC)[C@@H](C(=O)N2CC=C[C@H]2C(=O)N/C(C(=O)N/C(=C/C(=O)O)C(=O)O)=C(\C)CC)NC1=O [Phomopsin A] | 11.7 | 11 | – | I (otherwise these were reported as inactive (I)) | – | – | – | – | – |
| CC=C1CN(C)C2Cc3c([nH]c4ccccc34)C(c3cc4[nH]c5c(c4cc3OC)CCN3CC4CC(CC)C3C5(C(=O)OC)C4)CC1C2C(=O)OC (stereo not drawn) [Voacamine] | 9.44 | 11.1 | I (otherwise these were reported as inactive (I)) | – | – | – | – | – | – |
| CO[C@@]12[C@H](COC(N)=O)C3=C(C(=O)C(C)=C(N)C3=O)N1C[C@@H]1N[C@@H]12 [Mitomycin C] | 11.5 | 3.72 | – | I (otherwise these were reported as inactive (I)) | – | – | – | – | – |
| CC[C@@H](C)[C@@H]1NC(=O)[C@@H](CC(C)C)NC(=O)[C@H](CC(C)C)NC(=O)[C@H](Cc2c[nH]c3ccccc23)NC(=O)CNC(=O)[C@H](CC(N)=O)NC1=O [Desotamide] (cyclo(GWL[dL][aIle]N)) | 15 | 4.99 | – | – | – | 0.987 | 0.689 | – | – |
| COC[C@H]1OC(=O)c2coc3c2[C@@]1(C)C1=C(C3=O)[C@@H]2CCC(=O)[C@@]2(C)C[C@H]1OC(C)=O [Wortmannin] | 7.97 | 13.5 | I (otherwise these were reported as inactive (I)) | – | – | – | – | – | – |
| CC1(C)C[C@]23[C@@H]4COC(=O)[C@H]2CC[C@H]1[C@@H]3CC4=O [Quadrone] | 11.6 | 11.6 | – | A (active (A) compounds having >25% inhibitory activity) | – | – | – | – | – |
| COC(=O)/C(=C1/OC(=O)C(c2ccccc2)=C1O)c1ccccc1 [Vulpinic acid] | 8.02 | 11.4 | I (otherwise these were reported as inactive (I)) | – | – | – | – | – | – |
| Cc1cc(O)c2c(c1)C(=O)c1cc(O)cc(O)c1C2=O [Emodin] | 17.8 | 12.6 | – | – | – | 1.052 | 0.831 | – | – |
| O=C(c1cc(Cl)c(Cl)[nH]1)c1c(O)cccc1O [Pyoluteorin] | 6.82 | 7.19 | – | I (otherwise these were reported as inactive (I)) | – | – | – | – | – |
| CC[C@H]1OC(=O)[C@H](C)[C@@H](O[C@H]2C[C@@](C)(OC)[C@@H](O)[C@H](C)O2)[C@H](C)[C@@H](O[C@@H]2O[C@H](C)C[C@H](N(C)C)[C@H]2O)[C@](C)(O)C[C@@H](C)[C@@H]2N[C@@H](COCCOC)O[C@H]([C@H]2C)[C@]1(C)O [Dirithromycin] | 8.51 | 2.24 | – | – | – | 0.867 | 0.651 | – | – |
| CC(=O)O[C@H]1C[C@@]2(C)[C@@H](CC[C@H]3[C@@]4(C)C=CC(=O)[C@@H](C)[C@@H]4[C@H](OC(C)=O)C(=O)[C@@]32C)/C1=C(\CCC=C(C)C)C(=O)O [Helvolic acid] | 5.19 | 10.6 | – | – | – | 0.864 | 0.811 | – | – |
| CC(=O)O[C@H]1C[C@@]2(C)[C@@H](C[C@@H](O)[C@H]3[C@@]4(C)CC[C@@H](O)[C@@H](C)[C@@H]4CC[C@@]32C)/C1=C(\CCC=C(C)C)C(=O)O [Fusidate sodium] | 4.26 | 1.6 | – | – | – | 0.786 | 0.66 | – | – |
| O=C(O)c1cccc(C(=O)O)n1 [Dipicolinic acid] | 13.9 | 2.6 | – | – | – | – | – | 0.967 | 0.656 |
| C[C@@H](O)[C@H]1C(=O)N2C(C(=O)O)=C(S[C@@H]3CN[C@H](CNS(N)(=O)=O)C3)[C@H](C)[C@H]12 [Doripenem] | 15.6 | 15.6 | – | – | – | 0.999 | – | – | – |
| COC1=C2C[C@@H](C)C[C@H](OC)[C@H](O)[C@@H](C)/C=C(\C)[C@H](OC(N)=O)[C@@H](OC)/C=C\C=C(/C)C(=O)NC(=CC1=O)C2=O [Geldanamycin] | 13 | 14.1 | – | – | – | 0.958 | 0.854 | – | – |
